From patent US9290529B2, “Carbonic anhydrase inhibitors and method of their production” (USTAV ORGANICKE CHEMIE A BIOCHEMIE AKADEMIE VED CESKE …, priority 2011, dated 2016)

Columns and labels:
K562 = assay: MTT cytotoxicity assay, K562; type: cell-based, human; details: 72 h
Text: (§1) One of the parameters used as the basis for colorimetric assays is the metabolic activity of viable cells. For example, a microtiter assay which uses the tetrazolium salt MTT is now widely used to quantitate cell proliferation and cytotoxicity (Hájduch et al., Cytotechnology, 19, 1996, 243-245). For instance, this assay is used in drug screening programs and in chemosensitivity testing. Because tetrazolium salts are cleaved only by metabolically active cells, these assays exclusively detect viable cells. In the case of the MTT assay, yellow soluble tetrazolium salt is reduced to a coloured water-insoluble formazan salt. After it is solubilized, the formazan formed can easily and rapidly be quantified in a conventional ELISA plate reader at 570 nm (maximum absorbancy). The quantity of reduced formazan corresponds to the number of vital cells in the culture.
(§2) All cells were purchased from the […] (ATCC), unless otherwise indicated: the CEM line are highly chemosensitive T-lymphoblastic leukemia cells, K562 cells were derived from patient with […] with bcr-abl translocation, A549 line is lung adenocarcinoma, HCT116 is colorectal tumor cell line and its p53 gene knock-down counterpart (HCT116p53−) is a model of human cancers with p53 mutation frequently associated with poor prognosis. The daunorubicin resistant subline of CEM cells (CEM-DNR bulk) and paclitaxel resistant subline K562-tax were selected in our laboratory by the cultivation of maternal cell lines in increasing concentrations of daunorubicine or paclitaxel, respectively (Noskova et al., Neoplasma 49, 2002, 418). The CEM-DNR bulk cells overexpress MRP-1 protein, while K562-tax cells overexpress P-glycoprotein, both proteins belong to family of ABC transporters and are involved in primary and/or acquired multidrug resistance phenomenon (Noskova et al., Neoplasma 49, 2002, 418). The cells were maintained in Nunc/Corning 80 cm^2 plastic tissue culture flasks and cultured in cell culture medium (DMEM/RPMI 1640 with 5 g/l glucose, 2 mM glutamine, 100 U/ml penicillin, 100 μg/ml streptomycin, 10% fetal calf serum, and NaHCO3).
(§3) This assay was performed according to Hajduch et al., Anti-Cancer Drugs 10, 1997, 1007. Cell suspensions were prepared and diluted according to the particular cell type and the expected target cell density (2 500-30 000 cells/well based on cell growth characteristics). Cells were added by pipette (80 μl) into 96-well microtiter plates. Inoculates were allowed a pre-incubation period of 24 h at 37° C. and 5% CO2 for stabilization. Four-fold dilutions, in 20-μl aliquots, of the intended test concentration were added to the microtiter plate wells at time zero. All test compound concentrations were examined in duplicate. Incubation of the cells with the test compounds lasted for 72 h at 37° C., in a 5% CO2 atmosphere at 100% humidity. At the end of the incubation period, the cells were assayed using MTT. Aliquots (10 μl) of the MTT stock solution were pipetted into each well and incubated for a further 1-4 h. After this incubation period the formazan produced was dissolved by the addition of 100 μl/well of 10% aq SDS (pH=5.5), followed by a further incubation at 37° C. overnight. The optical density (OD) was measured at 540 nm with a Labsystem iEMS Reader MF. Tumor cell survival (TCS) was calculated using the following equation: TCS=(ODdrug-exposed well/mean ODcontrol wells)×100%. The TCS50 value, the drug concentration lethal to 50% of the tumor cells, was calculated from appropriate dose-response curves.

A549 = assay: MTT cytotoxicity assay, A549; type: cell-based, human; details: 72 h
Text: as §1, §2, §3

CCRF-CEM = assay: MTT cytotoxicity assay, CCRF-CEM; type: cell-based, human; details: 72 h
Text: as §1, §2, §3

CEM-DNR = assay: MTT cytotoxicity assay, CEM-DNR; type: cell-based, human; details: 72 h
Text: as §1, §2, §3

BJ = assay: MTT cytotoxicity assay, BJ; type: cell-based; details: 72 h
Text: as §1, §3

MRC-5 = assay: MTT cytotoxicity assay, MRC-5; type: cell-based; details: MRC-5, MTT, 72 h
Text: as §1, §3

[1] = Orientational pharmacokinetics, serum concentrations by HPLC; details: intraperitoneally at the MTD, female NMRI mice
Method: The ability of compounds to achieve therapeutically relevant concentrations in biological fluids was tested in orientational pharmacokinetics experiment. […] The blood was collected on ice and processed for serum separation within 60 minutes after sampling. Serum was evaporated to dryness on a device ThermoScientific SPD SpeedVac (72 h, 50° C.) until analyzed. Residues were precipitated by the 225 μl of acetonitrile with an addition of 25 μl of 10% SDS (w/w in water), then vortexed for 5 min and centrifuged 5 min at 14000 RPM at a room temperature. Aliquot of the supernatant was transferred into a 250 μl autosampler vial. […] Sensitivity range 0.2 or 0.02 A.U.F.S. (Absorbance Units Full Scale). An Ion-pair reverse phase chromatographic method with an isocratic elution 300 μl/min was used. Sample injection: 20 μl.

NMRI female mice = assay: Dose finding study (MTD, DLT), single intraperitoneal dose; details: for dose limiting toxicity (DLT): mouse, in vivo, ip; for maximum tolerated dose (MTD): single dose, intraperitoneally, NMRI female mice
Method: Both compounds were dissolved in 10% dimethylsulfoxide/water (vol/vol) at stock concentration of 10 mg/ml and applied intraperitoneally to NMRI female mice (minimum 3/group) in ascending doses until the MTD was reached. Animals were housed in specific pathogen free conditions, water and food ad libitum.

1-methylenesulfamide-1,7-dicarba-closo-dodecaborane [CB-19]
IC50 (K562): 81 ± 3.3 µM | IC50 (A549): ≥ 100 µM | IC50 (CCRF-CEM): 71.9 ± 3.7 µM | IC50 (CEM-DNR): 100 ± 0.1 µM | IC50 (BJ): ≥ 100 µM | IC50 (MRC-5): ≥ 100 µM

1-methylenesulfamide-3,3′-commo-bis(1,2-dicarba-3-cobalta(III)-closo-dodecabor)ate (1-) [CB-5]
IC50 (A549): ≥ 100 µM | IC50 (CCRF-CEM): 85.4 ± 22.6 µM | IC50 (BJ): ≥ 100 µM | IC50 (MRC-5): 93.2 ± 7 µM

1-methylenesulfamide-9-phenyl-1,2-dicarba-closo-dodecaborane and 1-methylene-sulfamide-12-phenyl-1,2-dicarba-closo-dodecaborane [CB-8]
IC50 (K562): 71.3 ± 4.2 µM | IC50 (A549): 96 ± 6.2 µM | IC50 (CCRF-CEM): 73.4 ± 6.8 µM | IC50 (CEM-DNR): 96.8 ± 3.3 µM | IC50 (BJ): ≥ 100 µM | IC50 (MRC-5): ≥ 100 µM

1-methylensulfamide-1,2-dicarba-closo-dodekaborane [CB-1]
IC50 (K562): 60.1 ± 3 µM | IC50 (A549): 94.9 ± 4.3 µM | IC50 (CCRF-CEM): 61.8 ± 10.6 µM | IC50 (CEM-DNR): 79 ± 8.9 µM | IC50 (BJ): ≥ 100 µM | IC50 (MRC-5): 22.1 ± 1.1 µM

1-sulfamide-closo-1-carbadodecaborate (1-) [CB-3]
IC50 (K562): ≥ 100 µM | IC50 (A549): ≥ 100 µM | IC50 (CCRF-CEM): ≥ 100 µM | IC50 (BJ): ≥ 100 µM | IC50 (MRC-5): ≥ 100 µM

7-methylensulfamide-8-phenyl-(7,8-nido-dikarbaundekabor)ate (1-) [CB-6]
IC50 (K562): 27.5 ± 7.1 µM | IC50 (A549): 77.8 ± 10.8 µM | IC50 (CCRF-CEM): 20.2 ± 1.7 µM | IC50 (CEM-DNR): 98.1 ± 3 µM | IC50 (BJ): ≥ 100 µM

7-methylensulfamide-(7,8-nido-dicarbaundekaborate) (1-) [CB-2]
IC50 (K562): ≥ 100 µM | IC50 (A549): ≥ 100 µM | IC50 (CEM-DNR): 96.7 ± 3.8 µM | IC50 (BJ): ≥ 100 µM | IC50 (MRC-5): ≥ 100 µM

8-butyloxysulfamide-3,3′-commo-bis(decahydro-1,2-dicarba-3-cobalta(III)-closo-dodekabor)ate (1-) [CB-16]
IC50 (A549): ≥ 100 µM | IC50 (CCRF-CEM): 89.9 ± 6 µM | T1/2 [1]: 5 h | pharmacokinetics under in vivo conditions [1]: linear pharmacokinetics | IC50 (CEM-DNR): 95.1 ± 7.9 µM | dose limiting toxicity (DLT) (NMRI female mice): somnolence, apathy and local irritation | maximum tolerated dose (MTD) (NMRI female mice): 166 mg/kg | IC50 (BJ): ≥ 100 µM | IC50 (MRC-5): ≥ 100 µM

8-diethyleneoxysulfamide-3,3′-commo-bis(decahydro-1,2-dicarba-3-cobalta(III)-closo-dodekabor)ate (1-) [CB-17]
IC50 (K562): ≥ 100 µM | IC50 (A549): ≥ 100 µM | IC50 (CCRF-CEM): 95.1 ± 5 µM | IC50 (CEM-DNR): ≥ 100 µM | IC50 (BJ): ≥ 100 µM | IC50 (MRC-5): ≥ 100 µM

8-ethylaminomethylsulfamide-8″-methoxy-3,3′-commo-bis(decahydro-1,2-dicarba-3-cobalta(III)-closo-dodecabor)ate (1-) [CB-15]
IC50 (K562): 17.7 ± 0.7 µM | IC50 (A549): 33.7 ± 7.7 µM | IC50 (CCRF-CEM): 17.3 ± 1.2 µM | IC50 (CEM-DNR): 47.9 ± 7.6 µM | IC50 (BJ): 65.2 ± 4.4 µM | IC50 (MRC-5): 27 ± 4.8 µM

8-methylensulfamide-8″-methoxy-3,3′-commo-bis(1,2-dicarba-3-cobalta(III)-closo-dodecabor)ate (1-) [CB-4]
IC50 (K562): 74.3 ± 3.7 µM | IC50 (A549): 95.5 ± 3.7 µM | IC50 (CCRF-CEM): 61.7 ± 17.8 µM | T1/2 [1]: 6.5 h | pharmacokinetics under in vivo conditions [1]: linear pharmacokinetics | IC50 (CEM-DNR): 74.5 ± 2.8 µM | dose limiting toxicity (DLT) (NMRI female mice): somnolence, apathy and local irritation | maximum tolerated dose (MTD) (NMRI female mice): 125 mg/kg | IC50 (BJ): 76.4 ± 3.3 µM | IC50 (MRC-5): 77.9 ± 1 µM

8-propylenesulfamide-7-phenyl-(7,8-nido-dicarbaundecabor)ate (1-) [CB-13]
IC50 (K562): 71.8 ± 1.4 µM | IC50 (A549): 86.5 ± 4.6 µM | IC50 (CCRF-CEM): 62 ± 3 µM | IC50 (CEM-DNR): 68 ± 1.6 µM | IC50 (BJ): 88.4 ± 6.1 µM | IC50 (MRC-5): 75.6 ± 1.5 µM

9-sulfamide-9′-amine-2,2′-commo-bis(1,7,9-trikarba-2-ferra(II)-kloso-dodekabor)ane [CB-12]
IC50 (K562): ≥ 100 µM | IC50 (A549): ≥ 100 µM | IC50 (CCRF-CEM): ≥ 100 µM | IC50 (CEM-DNR): ≥ 100 µM | IC50 (BJ): ≥ 100 µM | IC50 (MRC-5): ≥ 100 µM

10-sulfamide-9′-amine-2,2′-commo-(1,7,10-tricarba-1′,7′,9′-tricarba-2-ferra (II)-closo-dodekabor)ane [CB-10]
IC50 (A549): ≥ 100 µM | IC50 (CCRF-CEM): 79.5 ± 22.7 µM | IC50 (CEM-DNR): ≥ 100 µM | IC50 (BJ): ≥ 100 µM | IC50 (MRC-5): ≥ 100 µM

Di(methylenesulfamide)-1,7-dicarba-closo-dodecaborane [CB-20]
IC50 (A549): ≥ 100 µM | IC50 (CCRF-CEM): 84.5 ± 5.3 µM | IC50 (BJ): ≥ 100 µM | IC50 (MRC-5): ≥ 100 µM
